Reference: article PMC3991570, “A Novel Highly Potent Autotaxin/ENPP2 Inhibitor Produces Prolonged Decreases in Plasma Lysophosphatidic Acid Formation In Vivo and Regulates Urethral Tension” (PLoS ONE, 2014)
Structures can show the parent of a compound that is named as a salt.

What was measured:
[1] = biological target: T1, recombinant human ATX/ENPP2 (Homo sapiens, UniProt Q13822); experiment: FS-3 assay of LysoPLD activity (2 h); format: biochemical; conditions: synthetic fluorescent substrate FS-3, 2 h; read-out: In vitro IC50, Recombinant human ATX/ENPP2, FS-3 (2 h)
T1 construct: (His)6 (C); made in house; host or cells: baculovirus AcNPV; virus made in Sf9, protein expressed in expresSF+ insect cells, from culture supernatant
Method: Recombinant ATX/ENPP2 protein (2 µg/ml) and various concentrations of the inhibitors were mixed and incubated at 37°C for 2 h in 100 mM Tris-HCl buffer (pH 8.0) containing 1%DMSO, 500 mM NaCl, 5 mM MgCl2, and 0.05% Triton X-100, in the presence of a fluorescent substrate FS-3 (1 µM). After incubation, fluorescence at 520 nm with excitation at 494 nm was measured.
(§1) Measurement points of choline production were plotted against the concentration of the inhibitor and the theoretical curve to obtain the IC50 value of the inhibitor for LysoPLD activity was obtained using the Activity Base version 7.1.0.39 software from ID Business Solutions Ltd.

[2] = biological target: T1, recombinant human ATX/ENPP2; experiment: Choline release assay, 16:0-LPC substrate, 30 min incubation; format: biochemical; conditions: read-out: In vitro IC50, Recombinant human ATX/ENPP2, Choline (30 min)
Method: In the choline release assay, a series of reaction mixtures containing different concentrations of the inhibitors were tested in parallel. Recombinant ATX/ENPP2 was dissolved in 100 mM Tris-HCl buffer (pH 9.0) containing 500 mM NaCl, 5 mM MgCl2 and 0.05% Triton X-100. First, the aqueous solution of recombinant ATX/ENPP2 (final concentration 2 µg/ml) was added to the reaction mixture containing different concentrations of the inhibitors, 1 mM 16:0-LPC, and DMSO 1%. Then, each mixture was incubated at 37°C for 30 min (primary reaction). A samples of each reaction mixture was subjected to the secondary incubation at 37°C for 30 min with 10 times the volume of 100 µM Amplex Red in 50 mM Tris-HCl buffer (pH 8.0), 1 U/ml horseradish peroxidase, 150 mU/ml choline oxidase and 5 mM CaCl2,. Fluorescence at 590 nm was measured with excitation at 544 nm and the amount of choline released in each reaction mixture was quantified based on a calibration curve created from a choline chloride standard.
as §1

[3] = biological target: T1, recombinant human ATX/ENPP2; experiment: Choline release assay, 16:0-LPC substrate, overnight (15 h) incubation; format: biochemical; conditions: about 15 h incubation, read-out: In vitro IC50, Recombinant human ATX/ENPP2, Choline (O/N)
Method: A series of reaction mixtures containing different concentrations of the inhibitors were also tested in parallel using an overnight incubation. First, the aqueous solution of recombinant ATX/ENPP2 (final concentration 2 µg/ml) or plasma samples from various animal species (final concentration 40%) was added to the reaction mixture containing different concentrations of ATX/ENPP2 inhibitors, 1 mM 16:0-LPC, and 1% DMSO. Then, each mixture was incubated at 37°C for 15 h (primary reaction). Samples of each mixture were subjected to the secondary reaction with 10 volumes of 300 µM TOOS in 100 mM Tris-HCl solution (pH 8.5), 500 µM 4-aminoantipyrine, 600 mU/ml horseradish peroxidase, 3 U/ml choline oxidase, and 5 mM CaCl2, at 37°C for 20 min (secondary reaction). […] Measurement points of choline production were plotted against the concentration of the inhibitor and the theoretical curve to obtain the IC50 value of the inhibitor for LysoPLD activity was obtained using the Activity Base version 7.1.0.39 software from ID Business Solutions Ltd.

plasma LPA = system: plasma LPA; parameters: method as in PMID 20392816; conditions: at 24 h after administration; cited from earlier work
[4] = system: urethane-anesthetized rats; experiment: Mean blood pressure in urethane-anesthetized rats; format: in vivo, rat; conditions: intraduodenal, up to 3 mg/kg (tamsulosin at the same dose range)
Method: Male Crl∶CD(SD) rats (7–8 weeks old) were anesthetized by intraperitoneal administration of urethane at a dose of 1.5 g/5 ml/kg. An arterial catheter (JMS cut-down tube; C3, JMS, Japan) was inserted into the common carotid artery to monitor blood pressure. After the abdomen was opened, another catheter (inner diameter, 0.9 mm; outer diameter, 1.5 mm; Shin-Etsu Polymer, Japan) was inserted into the duodenum and held in place with a suture thread. The abdomen was then cut along the median line and the urethra was ligated in the proximity of the pubic bone. […] Blood pressure and IUP were measured by a recorder (Graphtec, Japan) using a torsion-pressure amplifier (Nihon Kohden, Japan).
ONO-8430506 was dissolved in an aqueous solution containing 1.1 times the equivalent amount of NaOH. […] IUP and blood pressure were measured continuously during the 20-min after administration of either the inhibitor or tamsulosin. […] Postmortem IUP was measured until the lowest IUP value was reached and stabilized. The maximum percent decreases relative to the difference between baseline IUP and postmortem IUP was calculated to measure the change from baseline in IUP during the 20-min after drug administration.

[5] = system: urethane-anesthetized rats; experiment: Intraurethral pressure (IUP) in urethane-anesthetized rats; format: in vivo, rat
Method: Male Crl∶CD(SD) rats (7–8 weeks old) were anesthetized by intraperitoneal administration of urethane at a dose of 1.5 g/5 ml/kg. An arterial catheter (JMS cut-down tube; C3, JMS, Japan) was inserted into the common carotid artery to monitor blood pressure. After the abdomen was opened, another catheter (inner diameter, 0.9 mm; outer diameter, 1.5 mm; Shin-Etsu Polymer, Japan) was inserted into the duodenum and held in place with a suture thread. The abdomen was then cut along the median line and the urethra was ligated in the proximity of the pubic bone. For measurement of intraurethral pressure (IUP), a urethral catheter (JMS cut-down tube; C3, JMS Inc., Japan) was inserted from the top side of the bladder through the urethra and held in place by ligation at the bladder neck. Finally, both the arterial catheter and urethral catheter were connected to a pressure transducer (Nihon Kohden, Japan), and the rat was placed on a warm mat (37°C). Blood pressure and IUP were measured by a recorder (Graphtec, Japan) using a torsion-pressure amplifier (Nihon Kohden, Japan).
ONO-8430506 was dissolved in an aqueous solution containing 1.1 times the equivalent amount of NaOH. After confirming stabilization of IUP, rats received either the inhibitor or tamsulosin at a dose of 2 ml/kg in an aqueous solution through the duodenal catheter. IUP and blood pressure were measured continuously during the 20-min after administration of either the inhibitor or tamsulosin. At the end of the 20-min period, heparinized blood was collected from the jugular vein of the rat to prepare a plasma sample. Rats were then euthanized by intravenous administration of 1 ml of pentobarbital (Somunopentyl, Kyoritsu Seiyaku Corporation). Postmortem IUP was measured until the lowest IUP value was reached and stabilized. The maximum percent decreases relative to the difference between baseline IUP and postmortem IUP was calculated to measure the change from baseline in IUP during the 20-min after drug administration.

isolated rat urethra = experiment: Contraction of isolated rat urethra (Magnus apparatus); conditions: 100 nM to 30 µM added cumulatively
Method: Krebs-Henseleit buffer (112 mM NaCl, 5.9 mM KCl, 2.0 mM CaCl2, 1.2 mM MgCl2, 1.2 mM NaH2PO4, 25.0 mM NaHCO3 and 11.5 mM glucose) was prepared and aerated with 95%O2+5%CO2. 8-week old male CD (SD) IGS rats (Charles River Laboratories Japan, Inc.) were decapitated and exsanguinated. The urethra was excised and immediately immersed in ice-cooled Krebs-Henseleit buffer. The excised urethra was cut open and flattened using ophthalmologic scissors. The opened and flattened urethra was cut along the circular muscle into ‘ring-shaped’ strips 2–3 mm in width×3–4 mm in length using a razor. One ‘ring-shaped’ urethral specimen was prepared for each male rat.
Each prepared urethral specimen was hung inside a 5-ml Magnus tube filled with Krebs-Henseleit buffer (30°C). A resting tension of approximately 0.5 g was applied to the specimen for 60 min until it was stabilized. Thereafter, contraction motions of the specimen were recorded on a linear recorder (Model WR3320, Graphtec Corp.) after being amplified by a torsion-pressure amplifier (Models AP-641G and AP-601G, Nihon Kohden Corporation) and a force displacement pick-up transducer (Model TB-611T, Nihon Kohden Corporation). […] Phenylephrine (10 nM to 1 mM, Sigma-Aldrich) or 18:3-LPA (100 nM to 30 µM) was cumulatively added to the medium and the contractile force of each urethral specimen was measured.

Compound	IC50 [1] [nM]	IC50 [2] [nM]	IC50 [3] [nM]	also measured
O=C1S/C(=C\c2ccc(OCc3cccc(B(O)O)c3)cc2)C(=O)N1Cc1ccc(F)cc1 [HA130]	120	43	580	
O=C(CCN1CCN(C(=O)OCc2cc(Cl)cc(Cl)c2)CC1)c1ccc2[nH]c(=O)oc2c1 [PF-8380]				plasma LPA level after oral administration (plasma LPA): returned to the normal baseline level
CCCCCCCCCCCCCC(=O)Nc1ccc(CP(=O)(O)O)cc1 [S32826]	17	66	> 10000	
CCOc1ccccc1OCCN[C@H](C)Cc1ccc(OC)c(S(N)(=O)=O)c1 [tamsulosin, tamsulosin hydrochloride]				effect on mean blood pressure (MBP) [4]: drastically decreased; decrease in IUP ([5]; 0.3 mg/kg intraduodenal, maximum percent decrease during 20 min): 28%; dose of maximum effect on IUP ([5]; intraduodenal): 0.3 mg/kg; doses at which IUP decreased ([5]; intraduodenal): higher than 0.03 mg/kg
linolenoyl-lysophosphatidic acid [18:3-LPA]				contractile effect in isolated rat urethra (isolated rat urethra): comparable to phenylephrine
